Test results reported in ChEMBL document CHEMBL1909046, “DrugMatrix in vitro pharmacology data”.

How the values were obtained:
[1] = molecular target: T1, 5-hydroxytryptamine receptor 1A (Rattus norvegicus, UniProt P19327); assay type: cell membranes, CHO-K1, Membrane; also: in other assays of this panel Not Active means under 50% inhibition at 10 µM
T1 sequence (P19327 whole entry): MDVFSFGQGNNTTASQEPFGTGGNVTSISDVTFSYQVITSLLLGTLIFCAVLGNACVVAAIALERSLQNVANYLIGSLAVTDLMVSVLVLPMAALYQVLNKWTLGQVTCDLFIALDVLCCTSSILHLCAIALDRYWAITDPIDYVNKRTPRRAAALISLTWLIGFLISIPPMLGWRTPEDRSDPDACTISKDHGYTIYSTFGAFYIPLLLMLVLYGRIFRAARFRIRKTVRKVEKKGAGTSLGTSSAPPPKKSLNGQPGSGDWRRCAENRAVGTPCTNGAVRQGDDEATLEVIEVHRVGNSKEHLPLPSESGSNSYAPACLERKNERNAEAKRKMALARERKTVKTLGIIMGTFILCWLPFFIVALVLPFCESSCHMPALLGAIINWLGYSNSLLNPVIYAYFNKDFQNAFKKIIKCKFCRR

[2] = molecular target: Mitogen-activated protein kinase 1 (Homo sapiens, UniProt P28482); experiment: DRUGMATRIX: Protein Serine/Threonine Kinase, ERK2 enzyme inhibition (substrate: Myelin Basic Protein); parameters: species or system Escherichia coli; conditions: Not Active = under 50% inhibition at 10 µM
[3] = DRUGMATRIX: Glutamate, NMDA, Agonism radioligand binding (ligand: [3H] CGP-39653); assay type: cell membranes, Rattus norvegicus, Wistar, Cerebral cortex, Membrane; conditions: Not Active = under 50% inhibition at 10 µM
Substance-K receptor = molecular target: T2, Substance-K receptor (Homo sapiens, UniProt P21452); assay type: cell membranes, CHO, Membrane; also: in other assays of this panel Not Active means under 50% inhibition at 10 µM
T2 sequence (P21452 whole entry): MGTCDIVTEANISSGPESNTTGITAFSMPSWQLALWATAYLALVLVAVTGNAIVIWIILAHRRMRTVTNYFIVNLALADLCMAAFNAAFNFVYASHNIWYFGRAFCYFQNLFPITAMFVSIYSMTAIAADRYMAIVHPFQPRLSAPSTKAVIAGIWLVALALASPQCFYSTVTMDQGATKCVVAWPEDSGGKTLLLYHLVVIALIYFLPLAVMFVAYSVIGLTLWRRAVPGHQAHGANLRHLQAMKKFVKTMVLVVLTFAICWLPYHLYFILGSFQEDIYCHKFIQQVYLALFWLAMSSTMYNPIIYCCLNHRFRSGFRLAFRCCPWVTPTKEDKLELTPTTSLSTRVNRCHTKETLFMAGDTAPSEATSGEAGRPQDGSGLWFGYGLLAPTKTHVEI

[4] = molecular target: T3, Cysteinyl leukotriene receptor 1 (Homo sapiens, UniProt Q9Y271); assay type: cell membranes, Membrane; conditions: cho-k1; also: in other assays of this panel Not Active means under 50% inhibition at 10 µM
T3 sequence (Q9Y271 whole entry): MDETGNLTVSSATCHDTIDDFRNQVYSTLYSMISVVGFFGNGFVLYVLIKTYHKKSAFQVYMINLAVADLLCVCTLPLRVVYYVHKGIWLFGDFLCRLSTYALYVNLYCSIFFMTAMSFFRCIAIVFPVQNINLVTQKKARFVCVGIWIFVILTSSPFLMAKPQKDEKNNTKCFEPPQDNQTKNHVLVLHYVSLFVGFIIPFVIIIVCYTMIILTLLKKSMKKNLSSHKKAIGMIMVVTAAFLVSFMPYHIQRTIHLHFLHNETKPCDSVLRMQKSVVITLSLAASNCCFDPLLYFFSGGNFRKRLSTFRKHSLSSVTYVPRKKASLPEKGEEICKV

Sequence of Mitogen-activated protein kinase 1 (P28482 whole entry): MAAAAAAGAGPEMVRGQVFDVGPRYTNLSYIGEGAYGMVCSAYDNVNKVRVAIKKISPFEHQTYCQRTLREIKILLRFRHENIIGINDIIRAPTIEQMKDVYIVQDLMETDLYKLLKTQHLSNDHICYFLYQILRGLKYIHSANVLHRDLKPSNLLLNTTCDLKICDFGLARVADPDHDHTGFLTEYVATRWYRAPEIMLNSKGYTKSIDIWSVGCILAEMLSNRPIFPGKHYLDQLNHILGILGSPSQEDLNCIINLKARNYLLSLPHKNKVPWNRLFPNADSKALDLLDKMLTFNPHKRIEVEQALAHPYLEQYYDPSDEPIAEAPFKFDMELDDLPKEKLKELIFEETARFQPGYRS

Molecule	IC50 ([1]; cho-k1)	IC50 [2]	IC50 [3]	Ki [3]	IC50 (Substance-K receptor; read-out: IC50)	Ki (Substance-K receptor; read-out: Ki)	IC50 [4]	IC50 (Substance-K receptor; cho)	IC50 ([1]; read-out: IC50)	Ki ([1]; read-out: Ki)	Ki ([1]; cho-k1)	Ki [2]	Ki (Substance-K receptor; cho)	Ki [4]	IC50 (Substance-K receptor; cho, read-out: IC50)	Ki (Substance-K receptor; cho, read-out: Ki)
CC(=O)O[C@H]1C(=O)[C@@]2(C)[C@H]([C@H](OC(=O)c3ccccc3)[C@]3(O)C[C@H](OC(=O)[C@H](O)[C@@H](NC(=O)c4ccccc4)c4ccccc4)C(C)=C1C3(C)C)[C@]1(OC(C)=O)CO[C@@H]1C[C@@H]2O [PACLITAXEL]	Not Active	Not Active	Not Active	Not Active	6.12 µM	2040 nM	Not Active									
C[n+]1ccc(-c2cc[n+](C)cc2)cc1.[Cl-].[Cl-] [PARAQUAT DICHLORIDE]	Not Active	Not Active	Not Active	Not Active			Not Active	Not Active								
CC(C)NCC(O)COc1cccc2[nH]ccc12 (configuration not stated) [PINDOLOL]		Not Active	Not Active	Not Active			Not Active	Not Active	48 nM	27 nM						
CCn1cc(C(=O)O)c(=O)c2cnc(N3CCCC3)nc21 [PIROMIDIC ACID]	Not Active	Not Active	Not Active	Not Active			Not Active	Not Active								
C[n+]1ccccc1/C=N/O.[Cl-] [PRALIDOXIME CHLORIDE]	Not Active	Not Active	Not Active	Not Active			Not Active	Not Active								
COc1cc2nc(N3CCN(C(=O)c4ccco4)CC3)nc(N)c2cc1OC [PRAZOSIN]	Not Active	Not Active	Not Active	Not Active			Not Active	Not Active								
C[C@]12C=CC(=O)C=C1CC[C@@H]1[C@@H]2[C@@H](O)C[C@@]2(C)[C@H]1CC[C@]2(O)C(=O)CO [PREDNISOLONE]	Not Active	Not Active	Not Active	Not Active			Not Active	Not Active								
CC(=O)[C@H]1[C@H](C#N)C[C@H]2[C@@H]3CC=C4C[C@@H](O)CC[C@]4(C)[C@H]3CC[C@@]21C [PREGNENOLONE CARBONITRILE]	Not Active	Not Active	Not Active	Not Active			Not Active	Not Active								
CCCN(CCC)S(=O)(=O)c1ccc(C(=O)O)cc1 [PROBENECID]	Not Active	Not Active	Not Active	Not Active			Not Active	Not Active								
CCCNCC(O)COc1ccccc1C(=O)CCc1ccccc1 (configuration not stated) [PROPAFENONE]		Not Active	Not Active	Not Active			Not Active	Not Active	1640 nM	935 nM						
CCCOc1ccc(C(=O)OCCN(CC)CC)cc1N [PROPARACAINE]	Not Active	Not Active	Not Active	Not Active			Not Active	Not Active								
CC(C)c1cccc(C(C)C)c1O [PROPOFOL]	Not Active	Not Active	Not Active	Not Active			Not Active	Not Active								
C[C@@H]1O[C@@H](O[C@@H]2C=C3CC[C@@H]4[C@H](CC[C@]5(C)[C@@H](c6ccc(=O)oc6)CC[C@]45O)[C@@]3(C)CC2)[C@H](O)[C@H](O)[C@H]1O [PROSCILLARIDIN]	Not Active	Not Active	Not Active	Not Active			Not Active	Not Active								
Oc1cccc(O)c1O [PYROGALLOL]	Not Active	Not Active	Not Active	Not Active			Not Active	Not Active								
AURANOFIN	Not Active	Not Active	Not Active	Not Active			Not Active	Not Active			Not Active	Not Active	Not Active	Not Active		
GADOPENTETATE DIMEGLUMINE	Not Active	Not Active	Not Active	Not Active			Not Active	Not Active			Not Active	Not Active	Not Active	Not Active		
GENTAMICIN	Not Active	Not Active	Not Active	Not Active			Not Active	Not Active			Not Active	Not Active	Not Active	Not Active		
GRAMICIDIN	Not Active	Not Active	Not Active	Not Active			Not Active				Not Active	Not Active		Not Active	4.56 µM	1520 nM
NYSTATIN	Not Active	Not Active	Not Active	Not Active			Not Active	Not Active			Not Active	Not Active	Not Active	Not Active		
